Experimental data published in PubChem BioAssay (NCI).
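Briefly, cells in 96-well plates were exposed to five compound concentrations for 48 h, and endpoints were estimated by linear interpolation. Abbreviation: GI50, concentration required for 50% inhibition of growth. TGI: concentration producing complete growth inhibition.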

Legend:
Assay in all cases: NCI tumour cell line growth inhibition, 48 h
786-0 renal = tested on: 786-0 renal
CCRF-CEM leukemia = tested on: CCRF-CEM leukemia
K-562 leukemia = tested on: K-562 leukemia
NCI-H460 lung = tested on: NCI-H460 lung
UACC-257 melanoma = tested on: UACC-257 melanoma
DU-145 prostate = tested on: DU-145 prostate
HCC-2998 colon = tested on: HCC-2998 colon
SF-268 CNS = tested on: SF-268 CNS
SK-MEL-28 melanoma = tested on: SK-MEL-28 melanoma
MALME-3M melanoma = tested on: MALME-3M melanoma

SMILES | TGI (786-0 renal) [µM] | TGI (CCRF-CEM leukemia) [µM] | TGI (K-562 leukemia) [µM] | TGI (NCI-H460 lung) [µM] | TGI (UACC-257 melanoma) [µM] | GI50 (786-0 renal) [µM] | GI50 (CCRF-CEM leukemia) [µM] | GI50 (DU-145 prostate) [µM] | TGI (DU-145 prostate) [µM] | GI50 (HCC-2998 colon) [µM] | TGI (HCC-2998 colon) [µM] | GI50 (K-562 leukemia) [µM] | GI50 (NCI-H460 lung) [µM] | GI50 (SF-268 CNS) [µM] | TGI (SF-268 CNS) [µM] | GI50 (SK-MEL-28 melanoma) [µM] | TGI (SK-MEL-28 melanoma) [µM] | GI50 (UACC-257 melanoma) [µM] | TGI (MALME-3M melanoma) [µM] | GI50 (MALME-3M melanoma) [µM]
COC(=O)/C(=C/c1ccc(OC)cc1)C(C(=O)O)=C1CCCCC1 | > 100 | > 100 | > 100 | > 100 | > 100 | – | – | – | – | – | – | – | – | – | – | – | – | – | – | –
COc1cccc(NC(=O)c2sc3nc4c(cc3c2N)C(O)CCC4)c1 (configuration not stated) | > 100 | > 100 | > 100 | > 100 | > 100 | 0.503 | 0.22 | 0.292 | > 29.2 | 0.347 | > 100 | 0.0406 | 0.324 | 0.496 | > 55 | 0.787 | > 100 | 28.2 | – | –
O=C1C=C(Nc2ccc(S(=O)(=O)Nc3ncccn3)cc2)c2ccccc2C1=O | 45.6 | > 100 | 49.4 | 42.7 | 41.7 | – | – | – | – | – | 36.6 | – | – | – | 59.7 | – | 60.6 | – | 43.9 | –
c1cc[c]([Sn]([O]c2cccc3cccnc23)([O]c2cccc3cccnc23)[c]2ccccc2)cc1 | 4.74 | 0.44 | 0.631 | 3.66 | – | 0.57 | 0.183 | – | – | 2.48 | 9.62 | 0.221 | 1.36 | 0.41 | 1.5 | – | – | – | – | –
COC(=O)N/N=C(\C)C(CN(C)C)C(c1ccccc1)c1c(O)c2ccccc2oc1=O (configuration not stated) | > 100 | > 100 | > 100 | – | > 100 | – | – | – | – | – | > 100 | – | – | – | > 100 | – | > 100 | – | > 100 | –
CCOC(=O)C1=C(C(=O)OCC)C2(c3ccccc3)N(O1)c1ccccc1C2(C)C (configuration not stated) | > 100 | > 100 | > 100 | > 100 | > 100 | – | – | – | – | – | > 100 | – | – | – | > 100 | – | > 100 | – | > 100 | –
C/C(O)=C(\N=O)C(=O)NCc1ccccc1 | > 100 | > 100 | > 100 | > 100 | > 100 | – | – | – | – | – | > 100 | – | – | – | > 100 | – | > 100 | – | > 100 | –
N#C/C(=C\c1ccccc1)C(NO)Nc1ccccc1 (configuration not stated) | > 100 | > 100 | > 100 | > 100 | > 100 | – | – | – | – | – | > 100 | – | – | – | > 100 | – | > 100 | – | > 100 | –
CCC[CH2][Sn]([CH2]CCC)([O]C(=O)c1cccc(F)c1F)[O]C(=O)c1cccc(F)c1F | 2.22 | – | 1.08 | 3.24 | 2.28 | 1.05 | – | – | – | 1.63 | 2.98 | 0.207 | 1.7 | 0.838 | 2.15 | 0.933 | 2.13 | 1.09 | 1.89 | 0.585
COc1ccc2c(c1)CCc1c(CO)c(COC(=O)NC(C)C)n(C)c1-2 | > 100 | 12.5 | 10.5 | 26.5 | 27.1 | – | – | – | – | – | 51.5 | – | – | – | 63.8 | – | 28.6 | – | 16.2 | –
NC(=S)N/N=C1/CN(c2ccc(Cl)c(Cl)c2)CC(=O)C1c1nc2ccccc2s1 (configuration not stated) | > 100 | > 100 | > 100 | > 100 | > 100 | – | – | – | – | – | > 100 | – | – | – | > 100 | – | > 100 | – | > 100 | –
COc1ccc(-c2n[nH]nc2-c2cc(OC)c3c(c2)OCO3)cc1 | 28.5 | 14.2 | > 100 | 13.2 | > 100 | 0.0423 | 0.0264 | 0.0328 | 1.19 | 0.069 | 2.4 | < 0.01 | 0.0143 | 0.087 | > 62.3 | 0.0444 | > 89.7 | 20.5 | – | –
Cc1ccc(O)c(NC2=C(Cl)C(=O)N(Cc3ccccc3)C2=O)c1 | 86.1 | 29 | 59.6 | > 100 | – | 29.6 | 4.54 | 27.8 | 95.9 | – | – | 12.4 | 28.6 | 18.8 | 47.1 | 22.3 | 54.1 | – | 67.5 | 23
CCN(CC)c1ccc(N=Nc2ccc(-c3nc4cccn(C)c-4n3)cc2)cc1 | 17 | 19.8 | 11.9 | 17.3 | 42.3 | – | – | – | – | – | – | – | – | – | 50.1 | – | – | – | 26.8 | –
CC1=C(C(=O)Nc2ccccc2)C(c2cc(Cl)cc(Cl)c2)C(C(=O)Nc2ccccc2)=C(C)N1 | 22.9 | 14.9 | 13.6 | 62.8 | 27.2 | – | – | – | – | – | 25.7 | – | – | – | 15.3 | – | 30.2 | – | 27.9 | –
C1CC2=C(C1)C1=S(S2)SC2=C1CCC2 | > 100 | > 100 | > 100 | > 100 | > 100 | – | – | – | – | – | > 100 | – | – | – | > 100 | – | > 100 | – | > 100 | –
Cc1cn2c(/C=N/N=C(N)N)c(-c3ccncc3)nc2s1 | 29.3 | 22.4 | 34 | 30.4 | 38.5 | 15.8 | 7.16 | 16.4 | 31.2 | 14.6 | 27.7 | 15.4 | 16.8 | 16.7 | 30.7 | – | – | 19.5 | – | –
COC(=O)CC(=O)NCC1=CCC(=O)CC1 | > 100 | > 100 | > 100 | > 100 | > 100 | – | – | – | – | – | > 100 | – | – | – | > 100 | – | > 100 | – | > 100 | –
